From paper PMC6389896 (Communications Biology, 2019)
“And” between values parts separate entries of the source, which are not always exact repeats. Identical values can stand only once.

What was measured:
[1] = set-up: method as in earlier work; conditions: i.n. application of 50 μg oxytocin in female pigs; ref 18 (Rault et al.); cited from earlier work
[2] = Microperfusion of the amygdala, oxytocin in microperfusates; assay type: in vivo, mouse; conditions: intranasal 20 ng, 0 min = 100, individual animals, listed as OT
From the text: For microperfusion probe implantation, the male mice were with a subcutaneous injections of ketamine. The heads of anesthetised mice were fixed in a stereotactic frame (Narishige, Tokyo, Japan) and a 1 mm hole was drilled in the skull. The intact dura intact was then punctured to create defined opening of the meninges. Using the stereotactic frame, a healing dummy was slowly inserted into the three brain positions. The probe was fixed to the skull by using two anchor screws and biocompatible dental cement. All surgical procedures were completed within 30 min. A healing dummy was used to provide mechanical stability during the implantation and the healing period of 2 weeks. The microperfusion probe (a 4-mm length of the coaxial tube, 2.5 mm in diameter) consisting of a 20 G fluorinated ethylene propylene guide cannula was replaced before sampling with an inflow/outflow tubing on the day of the experiments. This tubing was connected to two glass Hamilton microsyringes placed in syringe pumps (Eicom, Osaka, Japan). Microperfusate was pumped into the probe at a flow rate of 2 µl/min, and the samples were withdrawn at the same flow rate. Sampling was conducted for 2 h. Both microprobes were perfused without sampling for 60 min before the first 30-min microperfusates from the amygdala, PVN, and prefrontal cortex were collected. The microperfusates were mixed under sterile conditions and consisted of 154 mM NaCl, 2.2 mM CaCl2, 5.6 mM KCl, 2.3 mM NaHCO3, and 0.15% BSA (pH 7.4)[80]. Beginning immediately after the nasal application, 4 additional microperfusates were taken at 30-min intervals. After the termination of the experiments, the brains were removed and snap-frozen to obtain 40-μm cryo-cut stained brain slices later for the histological verification of the perfusion site.

[3] = Oxytocin in CSF from the cisterna magna after administration, EIA; assay type: in vivo, mouse; conditions: for CSF OT: individual animals, listed as OT
Method: (§1) CSF was collected according to the protocol for sampling CSF from mice without detectable plasma contamination[77],[78]. Under ketamine anaesthesia (100 mg/kg intraperitoneally), the occipital skull was exposed, and the dura mater of the cisterna magna appeared as a glistening and clear reverse triangle through which the medulla oblongata, a major blood vessel (arteria dorsalis spinalis), and CSF space were visible. A capillary tube was inserted into the cisterna magna through the dura mater, blood-free CSF samples were collected with a 32G needle and immediately frozen with dry ice prior to storage at −80 °C. After CSF collections, blood samples were obtained by cardiac puncture from the mice under continuous ketamine anaesthesia.
(§2) The CSF samples (5 μl) were thawed and diluted 1:20 in assay buffer. CSF samples were assayed without protein extraction due to the low protein concentration in the CSF. […] The inter-assay and intra-assay coefficients of variation were less than 15%.

[4] = Oxytocin in CSF of the third ventricle after subcutaneous injection; assay type: in vivo, mouse; conditions: 90 min after sc 30 ng, 0 min = 100, individual animals, listed as OT
Method: In separate experiments we cannulated the third ventricles of WT and Ager^−/− mice and withdrew CSF for oxytocin measurements.
as §2

[5] = test system: monkey brain capillary endothelial cells; test: In vitro blood-brain barrier (BBB) model (MBT-24H), transport between luminal and abluminal chambers, control or RAGE shRNA knockdown; conditions: individual wells, listed as OT; for OT in lower (abluminal, brain) chamber: blood-to-brain, 3 h; for OT in luminal chamber: brain-to-blood, n = 3
Method: EC, monkey brain capillary endothelial cells; Peri, rat brain pericytes; Astro, rat astrocytes. […] The endothelial cells used in the upper chamber in a were treated with RAGE shRNA (knockdown, KD) or control (C or CNT) vectors to assess the effects of RAGE knockdown. […] Values are mean ± SEM
For the in vitro BBB model (MBT-24H, PharmaCo-Cell Co., Nagasaki, Japan), rat brain pericytes (1.5 × 10^4 cells/cm^2) and rat astrocytes (1.5 × 10^4 cells/cm^2) were seeded on the bottom of the collagen-coated polyester membranes of Transwell inserts (Corning Life Sciences, MA, USA). After 16 h the cells firmly adherent, monkey brain vascular endothelial cells (1.5 × 10^5 cells/cm^2) were then seeded on the upper side of the inserts in 24-well culture plates. The in vitro BBB models were established within 4 days of seeding the cells according to the manufacturer’s instructions. Trans-endothelial electrical resistance (TEER), which primarily reflects the flux of sodium ions through the cell layers in the culture conditions, was measured with an epithelial-volt-ohm metre and an Endohm-6 chamber electrodes (World Precision Instruments, Sarasota, FL, USA). The TEERs of the coated, cell-free filters were subtracted from the measured TEER values of the models and shown as Ω cm^2. The apparent permeability constants (Papp) between luminal and abluminal chambers were calculated from the distribution ratios. Endothelial expression was silenced using RAGE shRNA and the pSilencer 3.0-H1 vector (Ambion, Austin, TX, USA)[41]. […]

[6] = human or primate CSF, mammalian hippocampus and amygdala; cited from earlier work
[7] = Plasma oxytocin after subcutaneous injection, EIA; assay type: in vivo, mouse; conditions: WT and Ager-/- male mice
Method: as §1, §2
Supplementary Figure 5. Transportation of peripherally administrated oxytocin (OT) or PBS into […]
Blood was recovered from the cardiac ventricles of the wild type (WT, RAGE+/+) and Ager-/- (RAGE-/-) male mice (n = 3–16). Oxytocin was measured in the extracted samples. […]
concentrations were measured with enzyme immunosorbent assay (EIA) or LC-MS/MS. […]

- CSF OT ([3]; WT+Tg (endothelial human RAGE) mice, 60 min after sc oxytocin): 1.066% and 1.83% and 1.926% and 1.872%
- oxytocin concentrations in the CSF of Ager-/- mice after injection ([3]; sc 30 ng/mouse, Ager-/- mice): remained at baseline levels
- time of maxima of oxytocin in CSF from the cisterna magna ([3]; sc 30 ng/mouse, WT mice): 1 to 2 h
- time of return of CSF oxytocin to baseline ([3]; sc 30 ng/mouse, WT mice): 4 h
- OT in luminal chamber ([5]; 1 ng/ml abluminal, RAGE KD): 0.32 pg/mL and 0.34 pg/mL and 0.36 pg/mL
- OT in luminal chamber ([5]; 1 ng/ml added to abluminal chamber, control (C)): 0.84 pg/mL and 1.12 pg/mL and 0.62 pg/mL
- OT in luminal chamber ([5]; 10 ng/ml abluminal, RAGE KD): 2 pg/mL and 1.68 pg/mL and 0.8 pg/mL
- OT in luminal chamber ([5]; 10 ng/ml abluminal, control (C)): 4 pg/mL and 5.2 pg/mL and 5.4 pg/mL
- apparent permeability constant (Papp) ([5]; head 10 ng/ml, RAGE KD, calculated from distribution ratios): 0.076 x10^-6 and 0.098 x10^-6
- Tmax ([7]; plasma, sc 30 ng/mouse (approximately 1.1 μg/kg)): ≤ 10 min
- time of return of blood oxytocin to baseline ([7]; sc 30 ng/mouse): 1 to 2 h
SMILES: CC[C@H](C)[C@@H]1NC(=O)[C@H](Cc2ccc(O)cc2)NC(=O)[C@@H](N)CSSC[C@@H](C(=O)N2CCC[C@H]2C(=O)N[C@@H](CC(C)C)C(=O)NCC(N)=O)NC(=O)[C@H](CC(N)=O)NC(=O)[C@H](CCC(N)=O)NC1=O [oxytocin, Oxytocin]
- bioavailability [1]: 0.001%
- OT % in microperfusates of the amygdala ([2]; Ager-/- mice, 30 min): 116% and 89% and 169% and 98% and 65% and 54% and 55% and 105% and 67% and 87% and 79%
- OT % in microperfusates of the amygdala ([2]; Ager-/- mice, 60 min): 66% and 55% and 85% and 123% and 83% and 92% and 78% and 84% and 76% and 112% and 77% and 93% and 79%
- OT % in microperfusates of the amygdala ([2]; Ager-/- mice, 90 min): 137% and 158% and 73% and 162% and 90% and 65% and 76% and 99% and 129% and 131% and 83% and 110% and 163%
- OT % in microperfusates of the amygdala ([2]; WT mice, 30 min): 211% and 198% and 89% and 141% and 104% and 174%
- OT % in microperfusates of the amygdala ([2]; WT mice, 60 min): 190% and 195% and 144% and 170% and 93% and 133%
- OT % in microperfusates of the amygdala ([2]; WT mice, 90 min): 204% and 156% and 78% and 216% and 359% and 124%
- CSF OT ([3]; KO (Ager-/-) mice, 60 min after sc oxytocin): 1.096% and 1.022% and 1.298% and 0.875% and 0.8155% and 0.9128% and 1.16% and 0.679% and 1.176% and 1.081% and 0.9794% and 0.8625%
- CSF OT ([3]; KO+Tg mice, 60 min after sc oxytocin): 1.051% and 1.1275% and 0.9794% and 1.244% and 1.354% and 2.625%
- CSF OT ([3]; female Ager-/- mice, 60 min after sc OT): 110.13% and 105.01% and 103.76% and 85.23% and 99.81% and 68.15%
- CSF OT ([3]; female WT mice, 60 min after sc OT): 169.21% and 199.15% and 65.08% and 204.46% and 219.88% and 175.37% and 233.36% and 183.92% and 188.35%
- OT % in CSF of the 3rd ventricle ([4]; Ager+/+ male mice): 295% and 138% and 171% and 41% and 195% and 116% and 100% and 188% and 206%
- OT % in CSF of the 3rd ventricle ([4]; Ager-/- male mice): 137% and 73% and 77% and 133% and 80% and 118% and 115% and 103%
- OT in lower (abluminal, brain) chamber ([5]; 1 ng/ml added to luminal chamber, control vector (C)): 10 pg/mL and 13 pg/mL and 13.5 pg/mL and 11.5 pg/mL and 22.2 pg/mL
- OT in lower (abluminal, brain) chamber ([5]; 1 ng/ml luminal, RAGE shRNA knockdown (KD)): 5 pg/mL and 4.2 pg/mL and 2 pg/mL and 8 pg/mL
- OT in lower (abluminal, brain) chamber ([5]; 10 ng/ml luminal, RAGE KD): 8 pg/mL and 8.5 pg/mL and 9 pg/mL and 5 pg/mL
- OT in lower (abluminal, brain) chamber ([5]; 10 ng/ml luminal, control vector (C)): 21 pg/mL and 28 pg/mL and 15.5 pg/mL and 24 pg/mL and 27 pg/mL
- apparent permeability constant (Papp) ([5]; head 1 ng/ml, RAGE KD, calculated from distribution ratios): 1.263 x10^-6 and 1.061 x10^-6 and 0.505 x10^-6 and 2.02 x10^-6
- apparent permeability constant (Papp) ([5]; head 1 ng/ml, control (C), calculated from distribution ratios across chambers): 2.525 x10^-6 and 3.283 x10^-6 and 3.409 x10^-6 and 2.904 x10^-6
- time of maximal oxytocin concentrations after peripheral administration [6]: 10 to 60 min
